Columns and labels:
[1] = tested on: Mus musculus; assay: Tested for inhibition of Tumor necrosis factor alpha production after intravenous dosage of 10 mg/kg to 8 weeks old mice; assay type: functional
[2] = tested on: Rattus norvegicus; assay: Tested for inhibition of Tumor necrosis factor alpha production after intravenous dosage of 10 mg/kg to 6-8 weeks old rats; assay type: functional
[3] = tested on: Rattus norvegicus; assay: Inhibition of Tumor necrosis factor alpha production after i.v. dose of 0.01-0.1 mg/10 mL/kg in 6-8 weeks old rats.; assay type: functional; details: for ED50: Rattus norvegicus, iv, read-out: ID50 (the source's name)
[4] = tested on: Mus musculus; assay: Tested for inhibition of Tumor necrosis factor alpha production after intravenous dosage of 30 mg/kg to 8 weeks old mice; assay type: functional
[5] = tested on: Mus musculus; assay: Tested for inhibition of Tumor necrosis factor alpha production in 8 weeks old mice after intravenous dosage of 0.01-0.1 mg/10 mL/kg; assay type: functional; details: for ED50: Mus musculus, iv, read-out: ID50 (the source's name)
[6] = tested on: Rattus norvegicus; assay: Tested for inhibition of Tumor necrosis factor alpha production (po) in rats; assay type: functional; details: read-out: ID50 (the source's name)
[7] = tested on: Rattus norvegicus; assay: Tested for inhibition of Tumor necrosis factor alpha production after intravenous dosage of 30 mg/kg to 6-8 weeks old rats pretreated with saline; assay type: functional
[8] = tested on: Rattus norvegicus; assay: Tested for inhibition of Tumor necrosis factor alpha production after intravenous dosage of 10 mg/kg to 6-8 weeks old rats

## CCCCCCC(C)(C)C(=O)N[C@@H](COP(=O)(O)O)c1ccccc1
[1]
  inhibition in vivo at 10 mg/kg: 56%

## CCCCCCNC(=O)N[C@@H](COP(=O)(O)O)c1ccccc1
[1]
  inhibition in vivo at 10 mg/kg: 58%

## CCCCCCCC(=O)NC(COP(=O)(O)O)c1cccc(OC2CCCC2)c1 (stereo not given)
[2]
  inhibition in vivo at 10 mg/kg: 7%

## CCCCCCCC(=O)NC(COP(=O)(O)O)c1ccc(OC)cc1 (stereo not given)
[2]
  inhibition in vivo at 10 mg/kg: 34%

## CCCCCCCC(=O)NC(COP(=O)([O-])[O-])c1cccc(C)c1.[Na+].[Na+] (stereo not given)
[3]
  ED50: 53 mg/kg

## CCCCCCCC(=O)NC(COP(=O)(O)O)c1ccccc1Cl (stereo not given)
[2]
  inhibition in vivo at 10 mg/kg: 46%

## CCCC(CCC)C(=O)N[C@@H](COP(=O)(O)O)c1ccccc1
[4]
  inhibition in vivo at 30 mg/kg: 36%

## CCCCCCCC(=O)NC(COP(=O)([O-])[O-])c1cccc(OC2CCC2)c1.[Na+].[Na+] (stereo not given)
[3]
  ED50: 0.9 mg/kg

## CCCCCCCC(=O)N[C@@H](COP(=O)([O-])[O-])c1cccc(OC)c1.[Na+].[Na+]
[5]
  ED50: 0.26 mg/kg

## O=C(N[C@@H](COP(=O)([O-])[O-])c1ccccc1)c1ccccc1.[Na+].[Na+]
[1]; read-out: ID50 (the source's name)
  ED50: 32 mg/kg

## CCCCCCOC(=O)N[C@@H](COP(=O)([O-])[O-])c1ccccc1.[Na+].[Na+]
[5]
  ED50: 1.1 mg/kg
[3]
  ED50: 3.2 mg/kg

## CCCCCCCC(=O)NC(COP(=O)([O-])[O-])c1cccc(SC(C)C)c1.[Na+].[Na+] (stereo not given)
[3]
  ED50: 0.21 mg/kg

## CCCCCCC(C)C(=O)N[C@@H](COP(=O)([O-])[O-])c1ccccc1.[Na+].[Na+] (single isomer, unassigned; more polar)
[5]
  ID50: 2.4 mg/kg
[3]
  ID50: 1.7 mg/kg

## CCCCCCCC(=O)NC(COP(=O)([O-])[O-])c1cccc(SC)c1.[Na+].[Na+] (stereo not given)
[3]
  ED50: 0.56 mg/kg

## CCCCCCC(C)C(=O)N[C@@H](COP(=O)([O-])[O-])c1ccccc1.[Na+].[Na+] (stereo in doubt)
[5]
  ED50: 4.2 mg/kg
[3]
  ID50: 8 mg/kg

## CCCCCCCC(=O)NC(COP(=O)(O)O)c1ccc(C)cc1 (stereo not given)
[2]
  inhibition in vivo at 10 mg/kg: 44%

## CCCCCCCC(=O)N[C@@H](COP(=O)([O-])[O-])c1ccccc1.[Na+].[Na+]
[5]
  ED50: 0.8 mg/kg
[6]
  ED50: 103 mg/kg
[3]
  ED50: 3 mg/kg

## CCCC(=O)N[C@@H](COP(=O)(O)O)c1ccccc1
[1]
  inhibition in vivo at 10 mg/kg: 17%
[7]
  inhibition in vivo at 30 mg/kg: 37%

## CCCCCCCC(=O)NC(COP(=O)([O-])[O-])c1ccccc1C.[Na+].[Na+] (stereo not given)
[3]
  ED50: 2 mg/kg

## CCCCCCCC(=O)NC(COP(=O)(O)O)c1ccc(Cl)cc1 (stereo not given)
[2]
  inhibition in vivo at 10 mg/kg: -118%

## CCCCCC(=O)N[C@@H](COP(=O)([O-])[O-])c1ccccc1.[Na+].[Na+]
[5]
  ED50: 30 mg/kg
[3]
  ED50: 50 mg/kg

## CCCCCCCCCCC(=O)N[C@@H](COP(=O)(O)O)c1ccccc1
[1]
  inhibition in vivo at 10 mg/kg: 50%

## CCCCCCCC(=O)NC(COP(=O)([O-])[O-])c1cccc(OCCC)c1.[Na+].[Na+] (stereo not given)
[3]
  ED50: 0.7 mg/kg

## CCCCCCCC(=O)NC(COP(=O)(O)O)c1ccccc1OC (stereo not given)
[8]
  inhibition in vivo at 10 mg/kg: 55%

## CCCCCCCC(=O)NC(COP(=O)([O-])[O-])c1cccc(OCC)c1.[Na+].[Na+] (stereo not given)
[3]
  ED50: 0.2 mg/kg

## CCCCCCCC(=O)NC(COP(=O)([O-])[O-])c1cc(OC)cc(OC)c1.[Na+].[Na+] (stereo not given)
[3]
  ED50: 3.8 mg/kg

## CCCCCCCC(=O)NC(COP(=O)([O-])[O-])c1cccc(Cl)c1.[Na+].[Na+] (stereo not given)
[3]
  ED50: 5.2 mg/kg

## CCCCCCCC(=O)NC(COP(=O)([O-])[O-])c1cccc(O)c1.[Na+].[Na+] (stereo not given)
[3]
  ED50: 1.4 mg/kg

## CCCCCCCC(=O)NC(COP(=O)([O-])[O-])c1cccc(OC)c1.[Na+].[Na+] (stereo not given)
[3]
  ED50: 0.5 mg/kg

## O=C(CCCCc1ccccc1)N[C@@H](COP(=O)(O)O)c1ccccc1
[1]
  inhibition in vivo at 10 mg/kg: 27%

## CCCCCCC(=O)N[C@@H](COP(=O)([O-])[O-])c1ccccc1.[Na+].[Na+]
[5]
  ED50: 2.8 mg/kg
[3]
  ED50: 4.5 mg/kg

## CCCCCCCC(=O)NC(COP(=O)([O-])[O-])c1cccc(OC(C)C)c1.[Na+].[Na+] (stereo not given)
[3]
  ED50: 0.1 mg/kg

## CCCCCCCC(=O)N[C@H](COP(=O)([O-])[O-])c1cccc(OC)c1.[Na+].[Na+]
[3]
  ED50: 1.6 mg/kg

## CCCCCCCC(=O)NC(COP(=O)([O-])[O-])c1cccc(OCC(C)C)c1.[Na+].[Na+] (stereo not given)
[3]
  ED50: 33 mg/kg

## CC(=O)N[C@@H](COP(=O)(O)O)c1ccccc1
[1]
  inhibition in vivo at 10 mg/kg: 28%
[7]
  inhibition in vivo at 30 mg/kg: 21%

## CCCCCCCC(=O)N[C@H](COP(=O)([O-])[O-])c1ccccc1.[Na+].[Na+]
[3]
  ED50: 10 mg/kg
